Entries after “also recorded” stand apart in the source; their conditions may differ.
How the values were obtained:
[1] = system: kidney ischemia-reperfusion in C57/Bl6 mice; assay: Ischemia-reperfusion of the kidney (mild model), BUN and creatinine; type: in vivo; conditions: 50 mg/kg oral gavage
Procedure: ABC294640 reduces kidney damage following ischemia-reperfusion. Male C57/Bl6 mice (approximately 24 g) were first dosed with ABC294640 (50 mg/kg in 0.1 mL by oral gavage) or vehicle (0.1 mL in 0.375% Tween 80 in Phosphate-Buffered Saline), immediately followed by intraperitoneal injection of ketamine/xylazine for anesthesia. The procedure was performed on a heated surface using homeothermic pads to ensure the maintenance of animal body temperature. A midline incision was made and the two renal pedicles were located and clamped for 22 minutes or 25 minutes as indicated. Total blockage of the renal pedicle and thus artery was confirmed after several minutes as the kidney were seen to be dark red to purple in color, assuring correct clamp placement. […] One milliliter of pre-warmed (37° C.) sterile saline was instilled into the peritoneum at the time of closing using sutures for musculature and wound clips for the skin incision. Animals were maintained on homeothermic pads until awakening from anesthesia and post-operatively assessed for health.
Levels of blood urea nitrogen (BUN) were determined as an indicator of renal function. […] Therefore, the SK inhibitor substantially improves kidney function that persists for at least 3 days after drug administration.
ABC294640 reduces kidney damage following ischemia-reperfusion. Kidney ischemia-reperfusion was repeated as in Example 1, except that the duration of bilateral pedicle clamping was 25 minutes and animals were sacrificed 24 hours after surgery.
Ischemia-reperfusion of the kidney (mild model): Male C57/Bl6 mice (approximately 24 g) were first dosed with ABC294640 (50 mg/kg in 0.1 ml by oral gavage) or vehicle (0.1 ml in 0.375% Tween 80 in Phosphate-Buffered Saline), immediately followed by intraperitoneal injection of ketamine/xylazine for anesthesia. The procedure was performed on a heated surface using homeothermic pads to ensure the maintenance of animal body temperature. […] Animals were maintained on homethermic pads until awakening from anesthesia and post-operatively assessed for health.

[2] = system: severe kidney ischemia-reperfusion in mice; assay: Ischemia-reperfusion of the kidney (severe model), survival, BUN and creatinine; type: in vivo
Procedure: ABC294640 promotes survival in a severe model of kidney damage. To evaluate the protective effects of ABC294640 in a more severe IR model, mice were treated with ABC294640 (50 mg/kg in 0.1 mL by oral gavage) or vehicle (0.1 ml in 0.375% Tween-80 in PBS), and then the right kidney was ligated and removed and the left kidney pedicle was clamped for 45 min before reperfusion. Animals were assessed daily for postoperative health, including scoring for weight loss, activity and appearance. Following severe IR, vehicle-treated mice consistently died or were sacrificed because of severe ill health on post-surgery Day 2 (FIG. 3). In marked contrast, mice that received 50 mg/kg ABC294640 preoperatively all survived the IR insult.
ABC294640 protects against renal failure in a severe model of kidney damage. Blood was drawn from the severe IR mice at sacrifice, and levels of blood urea nitrogen (BUN) and creatinine were determined as indicators of renal function (FIG. 4). As expected, serum creatinine and BUN levels were highly elevated in the vehicle-treated IR animals (clear bars) compared with sham animals (hatched bars), indicative of post-surgical renal failure.
Ischemia-reperfusion of the kidney (severe model): The irreversible model was performed in a similar manner to the reversible model described above with the exception that the right kidney pedicle was tied off and the kidney removed and the left kidney was clamped for 45 minutes.

[3] = system: TNFα mRNA; assay: TNFα mRNA by quantitative real time PCR after hepatic warm IR; type: in vivo, mice
Procedure: ABC294640 prevents hepatic warm IR-induced tumor necrosis factor-α (TNFα) formation and NF-κB activation. Toxic cytokine formation and inflammatory processes play important roles in IR injury, and S1P is well known to promote inflammation. Accordingly, we investigated whether ABC294640 affects the expression of the pro-inflammatory cytokine TNFα after IR. Livers were harvested at 2 h after reperfusion and TNFα mRNA was detected by quantitative real time PCR. TNFα mRNA increased ˜10-fold after IR (FIG. 15, upper). ABC294640 blunted this increase in TNFα mRNA by ˜50%. NF-κB activation is involved in inflammatory cytokine formation and upregulation of adhesion molecules. After IR, phosphorylation of p65 subunit of NF-κB increased markedly, indicating NF-κB activation. This effect was also blunted by ABC294640 (FIG. 15 lower) which is consistent with our previous studies of NF-κB activation. Quantitative real-time PCR (qPCR): Total RNA in liver homogenates was isolated using a QIAGEN RNeasy kit and quantified using a NanoDrop ND-1000 Spectrophotometer. cDNAs of mRNA of interest were generated using the Bio-Rad iScript cDNA Synthesis kit. qPCR was performed on a BioRAD MyiQ single-color real-time PCR detection system. The primers used for each gene were designed using Primer 3 software. […] Data were analyzed with MyiQ software. […]

[4] = 25 minutes bilateral clamping, 24 hours after reperfusion
[5] = severe kidney IR, 48 hr (2 days) post-surgery
[6] = severe kidney IR, post-surgery Day 10

O=C(NCc1ccncc1)C12CC3CC(C1)CC(c1ccc(Cl)cc1)(C3)C2 [ABC294640, 3-(4-chlorophenyl)-N-(pyridin-4-ylmethyl)adamantane-1-carboxamide]
BUN levels vs vehicle [1, 4]: significantly lower; also recorded: substantially lower | creatinine levels vs vehicle [1, 4]: significantly lower; also recorded: substantially lower | BUN levels vs vehicle ([1]; bilateral renal pedicle clamping, 72 hours after reperfusion): significantly lower | survival after severe kidney IR ([2]; 50 mg/kg oral gavage preoperatively, right kidney removed, left pedicle clamped 45 min): all survived | survival time after severe kidney IR ([2]; 50 mg/kg oral gavage, right kidney removed, left kidney clamped 45 minutes): at least 9 days | postoperative health at sacrifice ([2]; severe kidney IR, 50 mg/kg, post-surgery Day 9, 50 mg/kg): in good health; also recorded: appeared robust and were gaining weight | BUN vs vehicle [2, 5]: significantly reduced | serum creatinine vs vehicle [2, 5]: significantly reduced | BUN [2, 6]: returned to normal; also recorded: returning to normal | serum creatinine [2, 6]: returned to normal; also recorded: returning to normal | TNFα formation after hepatic IR (in words) ([3]; livers harvested 2 h after IR): blunts TNFα formation | blunting of the increase in TNFα mRNA ([3]; livers harvested 2 h after reperfusion): ~50%

Reference: patent publication US20120122870A1, “Treatment Of Ischemia-Reperfusion Injury” (MUSC FOUNDATION FOR RESEARCH DEVELOPMENT, priority 2009, published 2012)
